Measurements reported in patent publication US10000471B2, “Pyrazole P38 map kinase inhibitors” (Respivert Limited, priority 2010, dated 2018).

What was measured:
[1] = test system: IL-8 release in d-U937 cells; assay: LPS-induced IL-8 release in d-U937 cells; type: cell-based, human; conditions: Homo sapiens, dU937
How it was run: (§1)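 PMA-differentiated (100 ng/ml, 48–72 hr) U937 macrophage-type cells pre-incubated 2 hr with compound, then stimulated 4 hr with 0.1 μg/mL E. coli O111:B4 LPS; supernatant TNFα and IL-8 measured by sandwich ELISA. TNFα inhibition expressed relative to 10 μg/mL BIRB796, giving REC50; IL-8 inhibition versus vehicle, giving IC50.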

[2] = test system: TNFα release in THP-1 cells; assay: LPS-induced TNFα release in THP-1 cells; type: cell-based, human; conditions: Homo sapiens
How it was run: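 Human monocytic THP-1 cells stimulated with 3 μg/mL E. coli LPS for 4 hr; supernatant TNFα measured by sandwich ELISA. Inhibition at each concentration versus vehicle control, IC50 from concentration-response curve.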

[3] = biological target: T1, p38 MAPKα isoform (MAPK14) (Homo sapiens, UniProt Q16539); assay: Enzyme inhibition assay (FRET, Z-LYTE), p38 MAPKα via MAPKAP-K2 activation; type: biochemical; conditions: read-out: Enzyme Inhibition IC50 p38α
T1 construct: purchased Invitrogen
T1 sequence (Q16539 whole entry, canonical isoform): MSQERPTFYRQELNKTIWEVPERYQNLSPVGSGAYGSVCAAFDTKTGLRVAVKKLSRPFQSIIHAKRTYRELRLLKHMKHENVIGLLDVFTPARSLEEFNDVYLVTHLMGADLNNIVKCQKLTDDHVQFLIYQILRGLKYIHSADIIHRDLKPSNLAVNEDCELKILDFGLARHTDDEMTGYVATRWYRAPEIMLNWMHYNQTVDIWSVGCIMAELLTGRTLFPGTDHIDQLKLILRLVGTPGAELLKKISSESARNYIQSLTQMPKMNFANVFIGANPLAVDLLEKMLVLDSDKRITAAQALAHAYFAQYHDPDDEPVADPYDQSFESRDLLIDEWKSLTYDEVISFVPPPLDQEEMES
How it was run: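 Recombinant p38 MAPKα was preincubated with compound for 2 h at RT. Its activity was measured indirectly through activation/phosphorylation of downstream MAPKAP-K2, with a Z-LYTE FRET peptide read-out (coumarin/fluorescein ratio) after a 1 h development step. IC50 came from concentration-response curves of percent inhibition versus an uninhibited control.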

[4] = test system: TNFα release in d-U937 cells; assay: LPS-induced TNFα release in d-U937 cells; type: cell-based, human; conditions: Homo sapiens, dU937, relative to 10 μg/mL BIRB796, read-out: LPS/TNFα REC50 d-U937
How it was run: as §1

[5] = test system: Differentiated U937 cells; assay: Cell viability MTT assay; type: cell-based, human; conditions: negative = apparent increase in viability; for MTT Assay (Viability) 4 h d-U937, percentage loss of cell viability: 4 hr in 5% FCS; for MTT Assay (Viability) 24 h d-U937, percentage loss of cell viability: 24 h in 10% FCS
How it was run: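 Differentiated U937 cells pre-incubated with compound either 4 hr in 5% FCS or 24 h in 10% FCS, then 1 hr MTT. Formazan dissolved in DMSO, absorbance at 550 nm. Percentage viability loss relative to 0.5% DMSO vehicle; apparent increases appear as negative percentages.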

p38 MAPKγ (MAPK12) = biological target: T2, p38 MAPKγ (MAPK12) (Homo sapiens, UniProt P53778); assay: Enzyme inhibition assay (FRET, Z-LYTE), p38 MAPKγ; type: biochemical; conditions: read-out: Enzyme Inhibition IC50 p38γ
T2 construct: purchased Invitrogen
T2 sequence (P53778 1-367): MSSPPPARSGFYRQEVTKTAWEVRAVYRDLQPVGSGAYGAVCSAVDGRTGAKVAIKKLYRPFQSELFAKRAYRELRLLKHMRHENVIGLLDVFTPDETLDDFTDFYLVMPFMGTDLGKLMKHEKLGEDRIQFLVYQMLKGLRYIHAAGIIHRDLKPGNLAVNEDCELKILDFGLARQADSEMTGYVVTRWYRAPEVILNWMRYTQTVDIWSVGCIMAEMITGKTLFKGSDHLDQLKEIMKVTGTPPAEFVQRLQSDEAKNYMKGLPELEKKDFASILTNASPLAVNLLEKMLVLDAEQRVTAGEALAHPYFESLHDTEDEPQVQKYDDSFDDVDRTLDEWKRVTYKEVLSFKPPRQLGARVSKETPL
How it was run: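 Recombinant phosphorylated p38 MAPKγ preincubated 2 h at RT with compound in HEPES buffer, then 2 μM FRET peptide and 100 μM ATP added for 1 h; protease development 1 h. Coumarin/fluorescein emission ratio gave phosphorylation; IC50 from concentration-response versus uninhibited control.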

[6] = test system: ICAM-1 induction in BEAS2B cells; assay: Poly I:C-induced ICAM-1 induction in BEAS2B cells; type: cell-based, human; conditions: Homo sapiens, BEAS-2B, read-out: PolyIC/ICAM1 IC50 BEAS2B
How it was run: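 Human bronchial epithelial BEAS2B cells were pre-incubated with compound for 2 hr, then transfected with 1 μg/mL poly I:C. After 18 hr, surface ICAM-1 was measured by cell-based ELISA (OD450-655) and normalized to crystal violet cell counts (OD595). IC50 came from inhibition versus vehicle across the concentration-response curve.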

Structure (SMILES)	IC50 [1]	IC50 [2]	IC50 [3]	EC50 [4]	IC50 (p38 MAPKγ (MAPK12))	MTT Assay (Viability) 4 h d-U937, percentage loss of cell viability [5]	MTT Assay (Viability) 24 h d-U937, percentage loss of cell viability [5]	IC50 [6]
COCC(=O)Nc1cc(Oc2ccc(NC(=O)Nc3cc(C(C)(C)C)nn3-c3ccc(C)cc3)c(S(C)(=O)=O)c2)ccn1 [Example 2, N-(4-(4-(3-(3-tert-Butyl-1-p-tolyl-1H-pyrazol-5-yl)ureido)-3-(methylsulfonyl)phenoxy)pyridin-2-yl)-2-methoxyacetamide]	174 nM	5.3 nM	37.7 nM	29.4 nM	366 nM	−3.1%	32.7%	427 nM
COCC(=O)Nc1cc(Oc2ccc(NC(=O)Nc3cc(C(C)(C)C)nn3-c3ccc(C)cc3)cc2Br)ccn1 [Example 33, N-(4-(2-bromo-4-(3-(3-tert-butyl-1-p-tolyl-1H-pyrazol-5-yl)ureido)phenoxy)pyridin-2-yl)-2-methoxyacetamide]	4.8 nM	1.5 nM	25.3 nM	6.4 nM	59.7 nM	−12.6%	68.9%	3 nM
COCC(=O)Nc1cc(COc2ccc(NC(=O)Nc3cc(C(C)(C)C)nn3-c3ccc(C)cc3)c(Cl)c2Cl)ccn1 [Example 14, N-(4-((4-(3-(3-tert-Butyl-1-p-tolyl-1H-pyrazol-5-yl)ureido)-2,3-dichlorophenoxy)methyl)pyridin-2-yl)-2-methoxyacetamide]	70.2 nM	6.1 nM	17 nM	40.8 nM	33.1 nM	−7.9%	49.6%	32.2 nM
COCC(=O)Nc1cc(Oc2ccc(NC(=O)Nc3cc(C(C)(C)C)nn3-c3ccc(C)cc3)cc2C(F)(F)F)ccn1 [Example 30, N-(4-(4-(3-(3-tert-butyl-1-p-tolyl-1H-pyrazol-5-yl)ureido)-2-trifluoromethylphenoxy)pyridin-2-yl)-2-methoxyacetamide]	6.5 nM	1.3 nM	164 nM	2.5 nM	152 nM	3.3%	61.6%	6.9 nM
COCC(=O)Nc1cc(COc2ccc(NC(=O)Nc3cc(C(C)(C)C)nn3-c3ccc(C)cc3)c3cccnc23)ccn1 [Example 16, N-(4-((5-(3-(3-tert-Butyl-1-p-tolyl-1H-pyrazol-5-yl)ureido)quinolin-8-yloxy)methyl)pyridin-2-yl)-2-methoxyacetamide]	4960 nM	> 1690 nM	36.7 nM	876 nM	1440 nM	−8.1%	−21.3%	> 1690 nM
COc1ccc(-n2nc(C(C)(C)C)cc2NC(=O)Nc2ccc(Oc3cc(NC(=O)NCCN(C)C)ncn3)c(Cl)c2Cl)cc1 [Example 100]	12.9 nM	0.7 nM	5.3 nM	0.3 nM	59.4 nM	−43.0%	17.2%	2 nM

The next compounds have a lower IC50 [1] than those just listed; values first:

IC50 [1]	IC50 [2]	IC50 [3]	EC50 [4]	IC50 (p38 MAPKγ (MAPK12))	Structure (SMILES)	MTT Assay (Viability) 4 h d-U937, percentage loss of cell viability [5]	MTT Assay (Viability) 24 h d-U937, percentage loss of cell viability [5]	IC50 [6]
2.5 nM	1.7 nM	10.7 nM	1.2 nM	139 nM	CNC(=O)Nc1nccc(Oc2ccc(NC(=O)Nc3cc(C(C)(C)C)nn3-c3ccc(CO)cc3)c(Cl)c2Cl)n1 [Example 25, 1-(4-(4-(3-(3-tert-Butyl-1-(4-(hydroxymethyl)phenyl)-1H-pyrazol-5-yl)ureido)-2,3-dichlorophenoxy)pyrimidin-2-yl)-3-methylurea]	−3.5%	58.6%	10.8 nM
2.3 nM	1.3 nM	45.4 nM	1.3 nM	126 nM	COCC(=O)Nc1nccc(Oc2ccc(NC(=O)Nc3cc(C(C)(C)C)nn3-c3ccc(C)cc3)c(Cl)c2Cl)n1 [Example 90, N-(4-(4-(3-(3-tert-butyl-1-p-tolyl-1H-pyrazol-5-yl)ureido)-2,3-dichlorophenoxy)pyrimidin-2-yl)-2-methoxyacetamide]	−26.8%	−0.5%	6.8 nM
2.2 nM	1.4 nM	84.6 nM	1.6 nM	96.2 nM	COc1ccc(-n2nc(C(C)(C)C)cc2NC(=O)Nc2ccc(Oc3ccnc(NC(=O)NC4CC4)c3)c(C#N)c2Cl)cc1 [Example 78, 1-(3-tert-butyl-1-(4-methoxyphenyl)-1H-pyrazol-5-yl)-3-(2-chloro-3-cyano-4-(2-(3-cyclopropylureido)pyridin-4-yloxy)phenyl) urea]	1.0%	20.9%	2.2 nM
1.9 nM	1 nM	16.8 nM	0.5 nM	32.1 nM	CNC(=O)Nc1cc(Oc2ccc(NC(=O)Nc3cc(C(C)(C)C)nn3-c3ccc(CO)cc3)c(Cl)c2Cl)ccn1 [Example 52, 1-(3-tert-butyl-1-(4-hydroxymethylphenyl)-1H-pyrazol-5-yl)-3-(2,3-dichloro-4-(2-(3-methylureido)pyridin-4-yloxy)phenyl)urea]	−43.8%	8.1%	2.4 nM
1.6 nM	0.3 nM	54.9 nM	0.2 nM	46.5 nM	COCC(=O)Nc1cc(Oc2ccc(NC(=O)Nc3cc(C(C)(C)C)nn3-c3ccc(O)cc3)c(Cl)c2Cl)ccn1 [Example 41, N-(4-(4-(3-(3-tert-butyl-1-(4-hydroxyphenyl)-1H-pyrazol-5-yl)ureido)-2,3-dichlorophenoxy)pyridin-2-yl)-2-methoxyacetamide]	−24.0%	76.5%	1.4 nM
1.2 nM	0.4 nM	36.7 nM	0.8 nM	184 nM	CSc1ccc(-n2nc(C(C)(C)C)cc2NC(=O)Nc2ccc(Oc3ccnc(NC(=O)N4CCCC4)c3)c(Cl)c2Cl)cc1 [Example 10, N-(4-(4-(3-(3-tert-Butyl-1-(4-(methylthio)phenyl)-1H-pyrazol-5-yl)ureido)-2,3-dichlorophenoxy)pyridin-2-yl)pyrrolidine-1-carboxamide]	−18.7%	17.0%	1.7 nM
0.2 nM	1.6 nM	29.9 nM	0.2 nM	172 nM	CNC(=O)Nc1cc(Oc2ccc(NC(=O)Nc3cc(C(C)(C)C)nn3-c3ccc(C)cc3)c(Cl)c2Cl)ncn1 [Example 95, 1-(3-tert-butyl-1-p-tolyl-1H-pyrazol-5-yl)-3-(2,3-dichloro-4-(6-(3-methylureido)pyrimidin-4-yloxy)phenyl)urea]	−38.0%	22.5%	1.1 nM
